Source: patent US12509460B2 (Skyhawk Therapeutics, Inc., priority 2019, dated 2025)
Where two headings read alike, the source gives them in different places.

Key:
MDR1 = assay: in vitro; conditions: dog, MDCK-MDR1, pH 7.4
Method: (§1) Example A13: Assessment of Blood-Brain-Barrier (BBB) Penetration Potential Via an MDCK-MDR1 Permeability Assay
(§2) The permeability of compounds is assessed for BBB penetration potential by use of an MDCK-MDR1 assay (Catalog EA203) performed by Absorption Systems, Exton PA.
(§3) Experimental Procedure: MDR1-MDCK cell monolayers are grown to confluence on collagen-coated, microporous membranes in 12-well assay plates. The permeability assay buffer is Hanks' balanced salt solution containing 10 mM HEPES and 15 mM glucose at a pH of 7.4. The buffer in the receiver chamber also contained 1% bovine serum albumin. The dosing solution concentration is 5 μM of test article in the assay buffer. Cell monolayers are dosed on the apical side (A-to-B) or basolateral side (B-to-A) and incubated at 37° C. with 5% CO2 in a humidified incubator. Samples are taken from the donor and receiver chambers at 120 minutes. Each determination is performed in duplicate. The flux of lucifer yellow is also measured post-experimentally for each monolayer to ensure no damage is inflicted to the cell monolayers during the flux period. All samples are assayed by LC-MS/MS using electrospray ionization.
(§4) The apparent permeability (Papp) and percent recovery are calculated as follows:
(§5) Analytical Method: Liquid Chromatography. Column: Waters ACQUITY UPLC BEH Phenyl 30 ×2.1 mm, 1.7 μm; M.P. Buffer. 25 mM ammonium formate buffer, pH 3.5; Aqueous Reservoir (A): 90% water, 10% buffer, Organic Reservoir (B): 90% acetonitrile, 10% buffer, Flow Rate: 0.7 mL/minute; Gradient Program:
(§6) • Total Run Time: 1.00 minute • Autosampler. 2 μL injection volume • Wash1: water/methanol/2-propanol:1/1/1; with 0.2% formic acid • Wash2: 0.1% formic acid in water • Brain Penetration • Potential Classification: A-B Papp≥3.0 and Efflux Ratio <3.0: High • A-B Papp≥3.0 and 10≥Efflux Ratio >3.0: Moderate • A-B Papp≥3.0 and Efflux Ratio≥10: Low • A-B Papp<3.0: Low

MDR1 (P-gp) = assay: in vitro; conditions: dog, MDCK-MDR1, pH 7.4
Method: as §1, §2, §3, §4, §5, §6

[1] = system: SMN protein in spinal muscular atrophy (SMA) patient fibroblasts (GM03813, Coriell); assay: SMN protein assay, Mesoscale Discovery (MSD); assay type: cell-based, human; conditions: for EC50: read-out: SMN2 protein EC50
Summary of the method: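 Absolute SMN levels were quantified by MSD against an SMN protein standard curve (1 μg/ml to 19.5 pg/ml) run on each plate. Samples were lysates of GM03813 patient fibroblasts (7000 cells/well) treated 48 hours with compound doses from 2.5 μM down to 0.6 nM.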

[2] = system: mHTT protein in GM04724 (CAG 70/20) Huntington's disease patient lymphoblast cells; assay: mHTT protein assay, 2B7-MW1 assay via Mesoscale Discovery (MSD); assay type: cell-based, human
Summary of the method: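 Signal from the 2B7-MW1 antibody pair on MSD, rising with polyQ length and smaller HTT fragments, measured mHTT after 48 h compound exposure (0.6 nM–10 μM) in GM04724 cells. A parallel replicate plate gave CellTiter Glo viability.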

[3] = system: MDR1-MDCK cell monolayers; conditions: dog, MDCK-MDR1, 120 min, 5 μM, pH 7.4
Method: as §1, §2, §3, §4, §5, §6

[4] = SMA patient fibroblasts GM03813, 48 hours, MSD
[5] = GM04724 Huntington's disease patient lymphoblasts
[6] = SMA patient fibroblasts (GM03813), 48 hours
[7] = GM04724 (CAG 70/20) Huntington's disease patient lymphoblasts

Compound: CN(c1ccc(-c2cc3cnccc3cc2O)nn1)[C@@H]1C[C@H]2CC[C@@H]([C@@H]1F)N2C [Compound 93A, 7-(6-(((1S,2S,3R,5R)-2-fluoro-8-methyl-8-azabicyclo[3.2.1]octan-3-yl)(methyl)amino)pyridazin-3-yl)isoquinolin-6-ol]
- efflux ratio at 120 min, 5 μM (MDR1): 3
- Papp A→B at 120 min, 5 μM (MDR1 (P-gp)): 5.27 ×10⁻⁶ cm/s
- Papp B→A at 120 min, 5 μM (MDR1 (P-gp)): 17.9 ×10⁻⁶ cm/s
- EC50 [1, 4]: 101 to 500 nM
- mHTT protein EC50 [2, 5]: E (501 ≤ E ≤ 10.000)
- MDCK-MDR1: % Recov A-B [3]: 50%
- MDCK-MDR1: % Recov B-A [3]: 70%

Compound: CN(c1ccc(-c2cnc(C#N)cc2O)nn1)[C@@H]1C[C@H]2CC[C@H](N2)[C@@H]1F (single isomer, unassigned) [Compound 71A]
- efflux ratio at 120 min, 5 μM (MDR1): 7
- Papp A→B at 120 min, 5 μM (MDR1 (P-gp)): 3.87 ×10⁻⁶ cm/s
- Papp B→A at 120 min, 5 μM (MDR1 (P-gp)): 26.2 ×10⁻⁶ cm/s
- SMN2 protein EC50 [1, 4]: E (501 ≤ E ≤ 10.000)
- mHTT protein EC50 [2, 5]: E (501 ≤ E ≤ 10.000)
- MDCK-MDR1: % Recov A-B [3]: 88%
- MDCK-MDR1: % Recov B-A [3]: 92%

Compound: CN(c1ccc(-c2ccc(Oc3cnn(C)c3)cc2O)nn1)[C@H]1C[C@@H]2CC[C@@H](N2)[C@H]1F (single isomer, unassigned) [Compound 91B]
- efflux ratio at 120 min, 5 μM (MDR1): 19
- Papp A→B at 120 min, 5 μM (MDR1 (P-gp)): 3.94 ×10⁻⁶ cm/s
- Papp B→A at 120 min, 5 μM (MDR1 (P-gp)): 73.3 ×10⁻⁶ cm/s
- SMN2 protein EC50 [1, 4]: E (501 ≤ E ≤ 10.000)
- mHTT protein EC50 [2, 5]: E (501 ≤ E ≤ 10.000)
- MDCK-MDR1: % Recov A-B [3]: 106%
- MDCK-MDR1: % Recov B-A [3]: 102%

Compound: CN(c1ccc(-c2cc3ccn(C)c(=O)c3cc2O)nn1)[C@@H]1C[C@H]2CC[C@@H]([C@@H]1F)N2C (single isomer, unassigned) [Compound 97A]
- efflux ratio at 120 min, 5 μM (MDR1): 20
- Papp A→B at 120 min, 5 μM (MDR1 (P-gp)): 1.96 ×10⁻⁶ cm/s
- Papp B→A at 120 min, 5 μM (MDR1 (P-gp)): 40.3 ×10⁻⁶ cm/s
- EC50 [1, 4]: 101 to 500 nM
- mHTT protein EC50 [2, 5]: E (501 ≤ E ≤ 10.000)
- MDCK-MDR1: % Recov A-B [3]: 73%
- MDCK-MDR1: % Recov B-A [3]: 74%

Compound: CN(c1ccc(-c2cc3ncn(CC(F)(F)F)c(=O)c3cc2O)nn1)[C@@H]1C[C@H]2CC(F)(F)[C@@H](C1)N2C (single isomer, unassigned) [Compound 110A]
- efflux ratio at 120 min, 5 μM (MDR1): 4
- Papp A→B at 120 min, 5 μM (MDR1 (P-gp)): 11 ×10⁻⁶ cm/s
- Papp B→A at 120 min, 5 μM (MDR1 (P-gp)): 44.4 ×10⁻⁶ cm/s
- SMN2 protein EC50 [1, 6]: E (501 ≤ E ≤ 10.000)
- mHTT protein EC50 [2, 7]: E (501 ≤ E ≤ 10.000)
- MDCK-MDR1: % Recov A-B [3]: 80%
- MDCK-MDR1: % Recov B-A [3]: 92%

Compound: Cc1nc2cc(-c3ccc(N(C)[C@H]4C[C@@H]5CC[C@H]([C@H]4F)N5C)nn3)c(O)cc2c(=O)n1CC(F)(F)F (single isomer, unassigned) [Compound 130B]
- efflux ratio at 120 min, 5 μM (MDR1): 94
- Papp A→B at 120 min, 5 μM (MDR1 (P-gp)): 0.77 ×10⁻⁶ cm/s
- Papp B→A at 120 min, 5 μM (MDR1 (P-gp)): 72.2 ×10⁻⁶ cm/s
- SMN2 protein EC50 [1, 6]: E (501 ≤ E ≤ 10.000)
- mHTT protein EC50 [2, 7]: E (501 ≤ E ≤ 10.000)
- MDCK-MDR1: % Recov A-B [3]: 107%
- MDCK-MDR1: % Recov B-A [3]: 110%

Compound: CNC(=O)c1cc(O)c(-c2ccc(N(C)[C@H]3C[C@@H]4CC[C@H]([C@H]3F)N4C)nn2)cc1F (single isomer, unassigned) [Compound 96B]
- efflux ratio at 120 min, 5 μM (MDR1): 20
- Papp A→B at 120 min, 5 μM (MDR1 (P-gp)): 2.72 ×10⁻⁶ cm/s
- Papp B→A at 120 min, 5 μM (MDR1 (P-gp)): 55.2 ×10⁻⁶ cm/s
- SMN2 protein EC50 [1, 4]: E (501 ≤ E ≤ 10.000)
- mHTT protein EC50 [2, 5]: E (501 ≤ E ≤ 10.000)
- MDCK-MDR1: % Recov A-B [3]: 92%
- MDCK-MDR1: % Recov B-A [3]: 98%

Compound: CN(c1ccc(-c2ccc(C(F)F)cc2O)nn1)[C@H]1C[C@@H]2CC[C@@H](N2)[C@H]1F (single isomer, unassigned) [Compound 120B]
- efflux ratio at 120 min, 5 μM (MDR1): 5
- Papp A→B at 120 min, 5 μM (MDR1 (P-gp)): 5.84 ×10⁻⁶ cm/s
- Papp B→A at 120 min, 5 μM (MDR1 (P-gp)): 27.3 ×10⁻⁶ cm/s
- SMN2 protein EC50 [1, 6]: E (501 ≤ E ≤ 10.000)
- mHTT protein EC50 [2, 7]: E (501 ≤ E ≤ 10.000)
- MDCK-MDR1: % Recov A-B [3]: 60%
- MDCK-MDR1: % Recov B-A [3]: 76%

Compound: CN(c1ccc(-c2ccc(-n3ccnc3)cc2O)nn1)[C@H]1C[C@@H]2CC(F)(F)[C@H](C1)N2 [Compound 13B, 2-(6-(((1R,3S,5S)-6,6-difluoro-8-azabicyclo[3.2.1]octan-3-yl)(methyl)amino)pyridazin-3-yl)-5-(1H-imidazol-1-yl)phenol]
- efflux ratio at 120 min, 5 μM (MDR1): 6
- Papp A→B at 120 min, 5 μM (MDR1 (P-gp)): 9.96 ×10⁻⁶ cm/s
- Papp B→A at 120 min, 5 μM (MDR1 (P-gp)): 55.7 ×10⁻⁶ cm/s
- SMN2 protein EC50 [1, 4]: E (501 ≤ E ≤ 10.000)
- EC50 [2, 5]: 101 to 500 nM
- MDCK-MDR1: % Recov A-B [3]: 90%
- MDCK-MDR1: % Recov B-A [3]: 97%

Compound: CN(c1ccc(-c2cc3occc(=O)c3cc2O)nn1)[C@@H]1C[C@H]2CC[C@@H]([C@@H]1F)N2C (single isomer, unassigned) [Compound 94A]
- efflux ratio at 120 min, 5 μM (MDR1): 7
- Papp A→B at 120 min, 5 μM (MDR1 (P-gp)): 4.99 ×10⁻⁶ cm/s
- Papp B→A at 120 min, 5 μM (MDR1 (P-gp)): 33.9 ×10⁻⁶ cm/s
- EC50 [1, 4]: 101 to 500 nM
- mHTT protein EC50 [2, 5]: E (501 ≤ E ≤ 10.000)
- MDCK-MDR1: % Recov A-B [3]: 68%
- MDCK-MDR1: % Recov B-A [3]: 71%

Compound: CC(=O)N(C)c1ccc(-c2ccc(N(C)[C@@H]3C[C@H]4CC[C@H](N4)[C@@H]3F)nn2)c(O)c1 [Compound 35A, N-(4-(6-(((1S,2S,3R,5R)-2-fluoro-8-azabicyclo[3.2.1]octan-3-yl)(methyl)amino)pyridazin-3-yl)-3-hydroxyphenyl)-N-methylacetamide]
- efflux ratio at 120 min, 5 μM (MDR1): 197
- Papp A→B at 120 min, 5 μM (MDR1 (P-gp)): 0.21 ×10⁻⁶ cm/s
- Papp B→A at 120 min, 5 μM (MDR1 (P-gp)): 41 ×10⁻⁶ cm/s
- SMN2 protein EC50 [1, 4]: E (501 ≤ E ≤ 10.000)
- mHTT protein EC50 [2, 5]: E (501 ≤ E ≤ 10.000)
- MDCK-MDR1: % Recov A-B [3]: 102%
- MDCK-MDR1: % Recov B-A [3]: 103%

Compound: CN(c1ccc(-c2cc3ncn(CC(F)(F)F)c(=O)c3cc2O)nn1)[C@@H]1C[C@H]2CC[C@@H]([C@@H]1F)N2C (single isomer, unassigned) [Compound 108A]
- efflux ratio at 120 min, 5 μM (MDR1): 49
- Papp A→B at 120 min, 5 μM (MDR1 (P-gp)): 1.51 ×10⁻⁶ cm/s
- Papp B→A at 120 min, 5 μM (MDR1 (P-gp)): 73.7 ×10⁻⁶ cm/s
- SMN2 protein EC50 [1, 6]: E (501 ≤ E ≤ 10.000)
- mHTT protein EC50 [2, 7]: E (501 ≤ E ≤ 10.000)
- MDCK-MDR1: % Recov A-B [3]: 82%
- MDCK-MDR1: % Recov B-A [3]: 91%

Compound: CN(C)C(=O)c1cc2cc(O)c(-c3ccc(N(C)[C@H]4C[C@@H]5CC[C@H]([C@H]4F)N5C)nn3)cc2o1 (single isomer, unassigned) [Compound 106B]
- efflux ratio at 120 min, 5 μM (MDR1): 35
- Papp A→B at 120 min, 5 μM (MDR1 (P-gp)): 1.61 ×10⁻⁶ cm/s
- Papp B→A at 120 min, 5 μM (MDR1 (P-gp)): 55.7 ×10⁻⁶ cm/s
- EC50 [1, 6]: 101 to 500 nM
- mHTT protein EC50 [2, 7]: E (501 ≤ E ≤ 10.000)
- MDCK-MDR1: % Recov A-B [3]: 92%
- MDCK-MDR1: % Recov B-A [3]: 99%
